Laboratory results from patent US10301278B2, “1-(triazin-3-yl/pyridazin-3-yl)-piper(-azine)idine derivatives and compositions therefor for inhibiting the activity of SHP2” (NOVARTIS AG, priority 2014, dated 2019).
Read-outs that look alike come from different tables or passages of the source.

Target: SHP2 (Homo sapiens (Human), UniProt Q06124)
Assay: SHP2 allosteric inhibition assay (DiFMUP prompt fluorescence)
Type: biochemical
Procedure: SHP2 is allosterically activated through binding of bis-tyrosyl-phorphorylated peptides to its Src Homology 2 (SH2) domains. The latter activation step leads to the release of the auto-inhibitory interface of SHP2, which in turn renders the SHP2 protein tyrosine phosphatase (PTP) active and available for substrate recognition and reaction catalysis. The catalytic activity of SHP2 was monitored using the surrogate substrate DiFMUP in a prompt fluorescence assay format.
After 30-60 minutes incubation at 25° C., the surrogate substrate DiFMUP (Invitrogen, cat#D6567) was added to the reaction and incubated at 25° C. for 30 minutes. […] The fluorescence signal was monitored using a microplate reader (Envision, Perki-Elmer) using excitation and emission wavelengths of 340 nm and 450 nm, respectively. The inhibitor dose response curves were analyzed using normalized IC50 regression curve fitting with control based normalization.

[1] = 0.5 nM SHP2 activated with 0.5 μM peptide IRS1_pY1172(dPEG8)pY1222, substrate DiFMUP, 25° C., read-out: IC50

Chain of SHP2 (Q06124 whole entry): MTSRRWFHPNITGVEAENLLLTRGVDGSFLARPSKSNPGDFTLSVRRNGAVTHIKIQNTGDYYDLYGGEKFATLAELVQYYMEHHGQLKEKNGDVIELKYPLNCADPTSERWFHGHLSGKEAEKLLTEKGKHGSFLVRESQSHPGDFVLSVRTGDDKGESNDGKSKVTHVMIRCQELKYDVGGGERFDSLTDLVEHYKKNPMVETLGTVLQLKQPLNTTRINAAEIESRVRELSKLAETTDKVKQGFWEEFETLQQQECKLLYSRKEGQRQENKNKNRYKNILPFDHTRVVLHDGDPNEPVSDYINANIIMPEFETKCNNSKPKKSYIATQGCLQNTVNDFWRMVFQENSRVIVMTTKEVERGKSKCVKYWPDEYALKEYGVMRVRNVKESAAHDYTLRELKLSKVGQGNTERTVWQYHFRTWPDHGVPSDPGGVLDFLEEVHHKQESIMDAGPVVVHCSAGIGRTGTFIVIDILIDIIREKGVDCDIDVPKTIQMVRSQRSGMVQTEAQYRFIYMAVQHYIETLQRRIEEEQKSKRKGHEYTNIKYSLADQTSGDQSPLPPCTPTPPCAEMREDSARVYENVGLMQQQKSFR

Q: Which IC50 [1] does the source give for CC1(N)CCN(c2cnc(Sc3cc(Cl)ccc3Cl)c(N)n2)CC1 [Example 5] here?
A: 1080 nM

Q: Which IC50 [1] does the source give for CC1(N)CCN(c2cnc(Sc3ccccc3C(F)(F)F)c(N)n2)CC1 [Example 4, 6-(4-amino-4-methylpiperidin-1-yl)-3-((2-(trifluoromethyl)phenyl)thio)pyrazin-2-amine] here?
A: 59 nM

Q: NCC1(c2cscn2)CCN(c2cnc(Sc3cccnc3C(F)(F)F)c(N)n2)CC1 [Example 40, 6-(4-(aminomethyl)-4-(thiazol-4-yl)piperidin-1-yl)-3-((2-(trifluoromethyl)pyridin-3-yl)thio)pyrazin-2-amine] was tested. Which IC50 [1] did it give?
A: 79 nM

Q: With Nc1nc(N2CCC(N)(CO)CC2)cnc1Sc1ccnc(N)c1Cl [Example 53] as the compound, how does the IC50 [1] read?
A: 315 nM

Q: NCC1(F)CCN(c2cnc(Sc3cccc(N)c3Cl)c(N)n2)CC1 [Example 44, 3-((3-amino-2-chlorophenyl)thio)-6-(4-(aminomethyl)-4-fluoropiperidin-1-yl)pyrazin-2-amine] was tested. Which IC50 [1] did it give?
A: 271 nM

Q: How did the IC50 [1] turn out when CC1(CN)CCN(c2cnc(Sc3ccnc(Cl)c3Cl)c(N)n2)CC1 [Example 43, 6-(4-(aminomethyl)-4-methylpiperidin-1-yl)-3-((2,3-dichloropyridin-4-yl)thio)pyrazin-2-amine] was run?
A: 14 nM

Q: How did the IC50 [1] turn out when CC1(CN)CCN(c2cnc(Sc3cc(N)nc(Cl)c3Cl)c(N)n2)CC1 [Example 55] was run?
A: 17.7 nM

Q: With CC1(N)CCN(c2cnc(Sc3cccc(N)c3C(F)(F)F)c(N)n2)CC1 [Example 21] as the compound, how does the IC50 [1] read?
A: 46 nM

Q: With Nc1cccc(Sc2ncc(N3CCC(N)(CO)CC3)nc2N)c1Cl [Example 32] as the compound, how does the IC50 [1] read?
A: 195 nM

Q: Which IC50 [1] does the source give for CC1(N)CCN(c2cnc(Oc3cccc(Cl)c3Cl)c(N)n2)CC1 [Example 8] here?
A: 64400 nM

Q: For NCC1CCCN(c2cnc(Sc3cccnc3C(F)(F)F)c(N)n2)C1 (stereo not drawn) [Example 46], which IC50 [1] is on record?
A: 459 nM

Q: With CC1(N)CCN(c2cnc(Sc3ccc(F)cc3Cl)c(N)n2)CC1 [Example 23] as the compound, how does the IC50 [1] read?
A: 51 nM

Q: With CC1(CN)CCN(c2cnc(Sc3ccnc(N)c3Cl)c(N)n2)CC1 [Example 42, 3-((2-amino-3-chloropyridin-4-yl)thio)-6-(4-(aminomethyl)-4-methylpiperidin-1-yl)pyrazin-2-amine] as the compound, how does the IC50 [1] read?
A: 23 nM

Q: Which IC50 [1] does the source give for CC1(N)CCN(c2cnc(Sc3ccncc3Cl)c(N)n2)CC1 [Example 36, 6-(4-amino-4-methylpiperidin-1-yl)-3-((3-chloropyridin-4-yl)thio)pyrazin-2-amine] here?
A: 76 nM

Q: CC1(N)CCN(c2cnc(Sc3ccc(F)cc3C(F)(F)F)c(N)n2)CC1 [Example 26] was tested. Which IC50 [1] did it give?
A: 67 nM

Q: CC1(CN)CCN(c2nc(N)c(Sc3cccc(Cl)c3Cl)nc2C(N)=O)CC1 [Example 33, 5-amino-3-(4-(aminomethyl)-4-methylpiperidin-1-yl)-6-((2,3-dichlorophenyl)thio)pyrazine-2-carboxamide] was tested. Which IC50 [1] did it give?
A: 19 nM

Q: With CC1(N)CCN(c2cnc(Sc3ccc(Br)cc3Cl)c(N)n2)CC1 [Example 22] as the compound, how does the IC50 [1] read?
A: 44 nM

Q: Nc1nc(N2CCC(N)(CO)CC2)cnc1Sc1cccnc1C(F)(F)F [Example 54] was tested. Which IC50 [1] did it give?
A: 170 nM

Q: Which IC50 [1] does the source give for COc1cccc(Sc2ncc(N3CCC(C)(N)CC3)nc2N)c1Cl [Example 10, 6-(4-amino-4-methylpiperidin-1-yl)-3-((2-chloro-3-methoxyphenyl)thio)pyrazin-2-amine] here?
A: 56 nM

Q: How did the IC50 [1] turn out when CC1(CN)CCN(c2cnc(Sc3cccnc3Cl)c(N)n2)CC1 [Example 39, 6-(4-(aminomethyl)-4-methylpiperidin-1-yl)-3-((2-chloropyridin-3-yl)thio)pyrazin-2-amine] was run?
A: 26 nM

Q: How did the IC50 [1] turn out when CC1(N)CCN(c2cnc(Sc3ccccc3Cl)c(N)n2)CC1 [Example 2] was run?
A: 70 nM

Q: Which IC50 [1] does the source give for CC1(CN)CCN(c2cnc(Sc3ccnc(Cl)c3Cl)c(N)n2)CC1 [Example 49] here?
A: 100 nM

Q: How did the IC50 [1] turn out when COc1ccc(Cl)c(Sc2ncc(N3CCC(C)(N)CC3)nc2N)c1 [Example 7] was run?
A: 13700 nM

Q: How did the IC50 [1] turn out when Nc1nc(N2CCC(N)(CO)CC2)cnc1Sc1ccnc(Cl)c1Cl [Example 52, (4-amino-1-(6-amino-5-((2,3-dichloropyridin-4-yl)thio)pyrazin-2-yl)piperidin-4-yl)methanol] was run?
A: 62 nM

Q: For CCCC1(CN)CCN(c2cnc(Sc3ccnc(N)c3Cl)c(N)n2)CC1 [Example 51], which IC50 [1] is on record?
A: 17 nM

Q: Which IC50 [1] does the source give for CC1(N)CCN(c2cnc(Sc3ccc(Cl)cc3Cl)c(N)n2)CC1 [Example 6] here?
A: 210 nM

Q: With CC1(N)CCN(c2cnc(Sc3ccc(-c4nn[nH]n4)cc3Cl)c(N)n2)CC1 [Example 38, 6-(4-amino-4-methylpiperidin-1-yl)-3-((2-chloro-4-(2H-tetrazol-5-yl)phenyl)thio)pyrazin-2-amine] as the compound, how does the IC50 [1] read?
A: 23 nM

Q: Which IC50 [1] does the source give for CC1(N)CCN(c2nnc(Sc3ccccc3Cl)c(N)n2)CC1 [Example 15] here?
A: 266 nM

Q: With CC1(CN)CCN(c2nc(N)c(Sc3cccnc3C(F)(F)F)nc2C(N)=O)CC1 [Example 35] as the compound, how does the IC50 [1] read?
A: 109 nM

Q: For CCC1(CN)CCN(c2cnc(Sc3ccnc(N)c3Cl)c(N)n2)CC1 [Example 50], which IC50 [1] is on record?
A: 59 nM

Q: CC1(N)CCN(c2cnc(Sc3cccnc3C(F)(F)F)c(N)n2)CC1 [Example 30] was tested. Which IC50 [1] did it give?
A: 66 nM

Q: How did the IC50 turn out when CC1(N)CCN(c2cnc(Sc3cccc(Cl)c3Cl)c(N)n2)CC1 [Example 1, 6-(4-amino-4-methylpiperidin-1-yl)-3-((2,3-dichlorophenyl)thio)pyrazin-2-amine] was run?
A: 29 nM

Q: Which IC50 [1] does the source give for CC1(N)CCN(c2cnc(Sc3cccc(NC(=O)c4ccc5ccccc5c4)c3Cl)c(N)n2)CC1 [Example 13] here?
A: 257 nM

Q: For C[C@@]1(N)CCN(c2cnc(Sc3cccc(Cl)c3Cl)c(N)n2)C[C@H]1O [Example 24], which IC50 [1] is on record?
A: 49 nM

Q: For CC1(CN)CCN(c2cnc(Sc3cccnc3C(F)(F)F)c(N)c2)CC1 [Example 45], which IC50 [1] is on record?
A: 351 nM

Q: For CC1(N)CCN(c2cnc(Sc3ccnc(C(F)(F)F)c3Cl)c(N)n2)CC1 [Example 37], which IC50 [1] is on record?
A: 82 nM

Q: With CC1(CN)CCN(c2cnc(Sc3ccncc3F)c(N)n2)CC1 [Example 48] as the compound, how does the IC50 [1] read?
A: 177 nM

Q: With CC1(CN)CCN(c2cnc(Sc3cccc(N)c3Cl)c(N)n2)CC1 [Example 20] as the compound, how does the IC50 [1] read?
A: 22 nM

Q: With NCC1(c2cccnc2)CCN(c2cnc(Sc3cccc(Cl)c3Cl)c(N)n2)CC1 [Example 28, 6-(4-(aminomethyl)-4-(pyridin-3-yl)piperidin-1-yl)-3-((2,3-dichlorophenyl)thio)pyrazin-2-amine] as the compound, how does the IC50 [1] read?
A: 54 nM

Q: CC1(N)CCN(c2cnc(Sc3cc(O)ccc3Cl)c(N)n2)CC1 [Example 9, 3-((3-amino-5-(4-amino-4-methylpiperidin-1-yl)pyrazin-2-yl)thio)-4-chlorophenol] was tested. Which IC50 [1] did it give?
A: 307 nM

Q: With NCC1(O)CCN(c2cnc(Sc3cccc(N)c3Cl)c(N)n2)CC1 [Example 47] as the compound, how does the IC50 [1] read?
A: 382 nM

Q: Which IC50 [1] does the source give for CC1(N)CCN(c2nnc(Sc3cccc(Cl)c3Cl)c(N)n2)CC1 [Example 14, 3-(4-amino-4-methylpiperidin-1-yl)-6-((2,3-dichlorophenyl)thio)-1,2,4-triazin-5-amine] here?
A: 143 nM
